Like-named read-outs stand apart in the source and are kept apart here.
Legend:
[1] = test system: H460 tumors; details: iv, 0.5 mg/kg
Protocol: (§1) Female athymic nu/nu mice (Harlan Laboratories Models, S. L. Barcelona, Spain or Envigo, Spain) were utilized for all experiments. Animal were housed in individually ventilated cages Sealsafe® Plus, Techniplast S.P.A.), up to ten per cage on a 12-hour light-dark cycle at 21-23° C. and 40-60% humidity. […] Animals were acclimated for at least 5 days prior to tumor implantation with a tumor cell suspension.
H460 cells were maintained in vitro at 37° C. with 5% CO2 in Dulbecco's Modified Eagle's Medium (Sigma-Aldrich, Co). Culture cells were passaged every 3 to 5 days upon reaching confluence. Each animal was subcutaneously implanted (on the right flank using 26 G needle and a 1 cc syringe) at 4-6 weeks of age with 5×10^6 H460 cells suspended in 0.05 mL of a solution consisting of 50% Matrigel® (Corning Incorporated Life Sciences) and 50% medium without serum or antibiotics.
(§2) Treatment tolerability was assessed by monitoring body weight evolution, clinical signs of systemic toxicity, as well as evidences of local damage in the injection site.
(§3) Treatments producing >20% lethality and/or 20% net body weight loss were considered toxic.

[2] = MTD (Maximum Tolerated Dose) determination, single iv administration; type: in vivo; details: female, mouse, in vivo; mice; iv/SD
How it was run: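 Female CD-1 or athymic nude (nu/nu) mice received compound in experimental formulation at various concentrations, or blank formulation, i.v. at 10 mL/kg, once (MTD) or weekly for three weeks (MTMD). Clinical signs of systemic toxicity, body weight and mortality were followed up to 14 days post-dose.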

[3] = test system: MDA-MB-231 tumors; details: iv, 0.5 mg/kg
Protocol: as §1
MDA-MB-231 cells were maintained in vitro at 37° C. with 5% CO2 in Dulbecco's Modified Eagle's Medium (Sigma-Aldrich, Co). Culture cells were passaged every 3 to 5 days upon reaching confluence.
as §2
(§4) In xenograft studies with other cell lines: • Tumor volume was calculated using the equation (a·b^2)/2, where a: length (longest diameter) and b: width (shortest diameter) were measured in mm by using digital caliper (Fowler Sylvac, S235PAT).
as §3

[4] = test system: H82 tumors; test: In vivo xenograft, human lung (SCLC) H82; details: iv weekly, 32 and ET-736 0.5 mg/Kg
Protocol: Female athymic nu/nu mice (Harlan Laboratories Models, S. L. Barcelona, Spain or Envigo, Spain) were utilized for all experiments. Animal were housed in individually ventilated cages Sealsafe® Plus, Techniplast S.P.A.), up to ten per cage on a 12-hour light-dark cycle at 21-23° C. and 40-60% humidity. Mice were allowed free access to irradiated standard rodent diet (Tecklad 2914C) and sterilized water. Animals were acclimated for at least 5 days prior to tumor implantation with a tumor cell suspension.
H82 cells were grown as a suspension and maintained by addition of fresh medium, as the cell density increases, every 2 to 3 days. Every week, culture was reestablished by centrifugation of the suspension with subsequent resuspension in fresh medium at a concentration of 1×10^5 cell/ml. Animals were subcutaneously implanted (on the right flank using 26 G needle and a 1 cc syringe) at 4-6 weeks of age with 5×10^6 H82 cells, suspended in 0.05 mL of a solution consisting of 50% Matrigel® (Corning Incorporated Life Sciences) and 50% medium without serum or antibiotics.
as §2, §4, §3
Tables and figures summarize the data obtained from complete experimental groups, i.e. those groups keeping the initial number of animals, n=8-10.

[5] = test system: HT1080 tumors; test: In vivo xenograft, human fibrosarcoma HT1080; details: iv weekly, 32 and ET-736 0.5 mg/Kg
Protocol: as §1
HT1080 cells were maintained in vitro at 37° C. with 5% CO2 in Minimum Essential Medium Eagle (MEME) (Sigma-Aldrich, Co). Each animal was orthotopically implanted into gastroecnemius muscle by an intramuscular injection using a 26 G needle and a 1 cc syringe at 4-6 weeks of age, with 10×10^6 HT1080 cells, suspended in serum free medium, without antibiotics.
as §2
In xenograft studies with HT1080 cell line: • Total diameter (tumor+leg) measurements were determined by using digital caliper (Fowler Sylvac, S235PAT).
as §3

COc1c(C)cc2c(c1O)[C@@H]1[C@@H]3[C@@H]4SC[C@]5(NCCc6c5oc5ccccc65)C(=O)OC[C@@H](c5c6c(c(C)c(OC(C)=O)c54)OCO6)N3[C@@H](O)[C@H](C2)N1C [Compound 32]
Median Tumor Volume ([1]; 0 h): 183.9 mm^3
Median Tumor Volume ([1]; 48 h): 455.2 mm^3
Median Tumor Volume ([1]; 120 h): 784.8 mm^3
Median Tumor Volume ([1]; 168 h): 837.4 mm^3
Median Tumor Volume ([1]; 336 h): 1845.5 mm^3
Median Tumor Volume ([1]; 384 h): 2025.0 mm^3
MTD at 14 days [2]: 0.5 mg/kg
Median Tumor Volume ([3]; 0 h): 150.2 mm^3
Median Tumor Volume ([3]; 48 h): 233.6 mm^3
Median Tumor Volume ([3]; 120 h): 310.6 mm^3
Median Tumor Volume ([3]; 168 h): 386.1 mm^3
Median Tumor Volume ([3]; 336 h): 560.3 mm^3
Median Tumor Volume ([3]; 384 h): 649.5 mm^3
Median Tumor Volume ([3]; 456 h): 853.0 mm^3
Median Tumor Volume ([3]; 504 h): 1017.5 mm^3
Median Tumor Volume ([3]; 552 h): 1263.2 mm^3
Median Tumor Volume ([3]; 672 h): 1726.6 mm^3
Median Tumor Volume ([3]; 720 h): 1892.6 mm^3
Median Tumor Volume ([4]; Table 64, Day 0): 171.6 mm^3
Median Tumor Volume ([4]; Table 64, Day 2): 309.4 mm^3
Median Tumor Volume ([4]; Table 64, Day 5): 485.0 mm^3
Median Tumor Volume ([4]; Table 64, Day 7): 708.4 mm^3
Median Tumor Volume ([4]; Table 64, Day 9): 972.6 mm^3
Median Tumor Volume ([4]; Table 64, Day 12): 1101.6 mm^3
Median Tumor Volume ([4]; Table 64, Day 14): 1339.6 mm^3
Median Tumor Volume ([4]; Table 64, Day 16): 1430.3 mm^3
Median Tumor Volume ([4]; Table 64, Day 19): 1885.7 mm^3
Total diameter (tumor + leg) ([5]; Table 60, Day 2): 8.9 mm
Total diameter (tumor + leg) ([5]; Table 60, Day 5): 8.2 mm
Total diameter (tumor + leg) ([5]; Table 60, Day 7): 8.8 mm
Total diameter (tumor + leg) ([5]; Table 60, Day 9): 10.0 mm
Total diameter (tumor + leg) ([5]; Table 60, Day 12): 8.8 mm
Total diameter (tumor + leg) ([5]; Table 60, Day 14): 10.8 mm
Total diameter (tumor + leg) ([5]; Table 60, Day 16): 11.8 mm
Total diameter (tumor + leg) ([5]; Table 60, Day 19): 12.0 mm
Total diameter (tumor + leg) ([5]; Table 60, Day 21): 14.0 mm
Total diameter (tumor + leg) ([5]; Table 60, Day 23): 13.8 mm
Total diameter (tumor + leg) ([5]; Table 60, Day 27): 13.6 mm
Total diameter (tumor + leg) ([5]; Table 60, Day 30): 15.5 mm
Total diameter (tumor + leg) ([5]; Table 60, Day 33): 18.0 mm

Reference: patent publication US10538535B2, “Antitumoral compounds” (priority 2017, dated 2020)
